Where a name gives a salt, the structure may show the parent alone. Read-outs that look alike come from different tables or passages of the source.
Columns and labels:
Type in all cases: biochemical
[1] = target: T1, human JAK3 (a.a. 781-1124) (Homo sapiens, UniProt P52333); test: In vitro JAK kinase assay (HTRF, phosphorylation of a biotinylated peptide), JAK3
T1 construct: JAK3 (a.a. 781-1124); His tag (N); made in house; host or cells: insect cells (baculovirus)
How it was run: (§1)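 Kinase reactions ran at room temperature for 1 h with ATP matched per isoform (JAK1 90 μM, JAK2 30 μM, JAK3 3 μM). After an EDTA stop, the phosphorylated biotin-peptide was read by HTRF using Eu-Py20 and SA-APC after 40 min binding.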

[2] = target: T2, Recombinant Human Anaplastic Lymphoma Kinase (Homo sapiens, UniProt Q9UM73); test: ALK HTRF kinase assay
T2 construct: purchased Invitrogen, Carlsbad, Calif
T2 sequence (Q9UM73 19-1620): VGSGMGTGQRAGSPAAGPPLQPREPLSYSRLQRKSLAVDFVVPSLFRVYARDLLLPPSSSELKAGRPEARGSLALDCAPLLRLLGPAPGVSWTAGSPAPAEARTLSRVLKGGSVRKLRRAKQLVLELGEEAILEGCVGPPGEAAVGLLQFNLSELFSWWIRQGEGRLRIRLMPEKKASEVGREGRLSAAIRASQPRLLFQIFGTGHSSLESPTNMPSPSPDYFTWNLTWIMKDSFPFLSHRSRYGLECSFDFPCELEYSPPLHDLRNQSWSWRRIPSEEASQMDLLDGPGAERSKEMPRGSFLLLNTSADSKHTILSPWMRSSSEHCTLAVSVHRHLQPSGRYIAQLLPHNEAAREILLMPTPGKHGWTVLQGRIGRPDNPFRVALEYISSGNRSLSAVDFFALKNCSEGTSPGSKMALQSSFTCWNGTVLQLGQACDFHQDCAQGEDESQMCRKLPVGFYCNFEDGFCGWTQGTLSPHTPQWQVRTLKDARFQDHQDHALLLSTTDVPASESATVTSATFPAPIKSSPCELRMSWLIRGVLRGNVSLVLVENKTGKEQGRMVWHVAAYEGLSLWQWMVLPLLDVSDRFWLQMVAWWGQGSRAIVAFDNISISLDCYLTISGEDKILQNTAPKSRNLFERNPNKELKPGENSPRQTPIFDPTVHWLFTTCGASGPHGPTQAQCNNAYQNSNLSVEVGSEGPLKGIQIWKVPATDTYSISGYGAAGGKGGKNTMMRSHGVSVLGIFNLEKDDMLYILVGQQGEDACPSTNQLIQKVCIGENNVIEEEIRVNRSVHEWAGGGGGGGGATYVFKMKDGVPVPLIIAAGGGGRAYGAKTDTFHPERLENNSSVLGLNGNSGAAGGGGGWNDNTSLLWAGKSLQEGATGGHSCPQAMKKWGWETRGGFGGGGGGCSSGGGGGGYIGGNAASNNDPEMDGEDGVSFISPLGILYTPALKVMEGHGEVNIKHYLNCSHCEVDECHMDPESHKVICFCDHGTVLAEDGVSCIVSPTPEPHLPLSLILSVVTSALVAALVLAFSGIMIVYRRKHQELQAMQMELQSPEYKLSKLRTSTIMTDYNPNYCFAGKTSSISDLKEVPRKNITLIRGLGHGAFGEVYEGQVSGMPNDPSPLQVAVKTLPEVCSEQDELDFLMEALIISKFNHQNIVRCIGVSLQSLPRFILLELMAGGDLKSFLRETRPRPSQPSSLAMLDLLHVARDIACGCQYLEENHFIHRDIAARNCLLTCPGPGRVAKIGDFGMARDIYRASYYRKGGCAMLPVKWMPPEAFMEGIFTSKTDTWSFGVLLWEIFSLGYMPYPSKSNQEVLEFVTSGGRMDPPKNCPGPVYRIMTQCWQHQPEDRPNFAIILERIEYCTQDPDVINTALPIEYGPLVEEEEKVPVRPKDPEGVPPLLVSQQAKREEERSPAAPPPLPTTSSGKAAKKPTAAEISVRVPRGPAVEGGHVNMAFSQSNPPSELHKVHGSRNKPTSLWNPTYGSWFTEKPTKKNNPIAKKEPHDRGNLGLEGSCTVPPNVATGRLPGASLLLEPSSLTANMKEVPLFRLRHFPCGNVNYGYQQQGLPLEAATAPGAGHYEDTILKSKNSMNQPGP
How it was run: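 Readout was HTRF between a Eu-W1024 anti-phosphotyrosine antibody and streptavidin-APC bound to biotinylated peptide phosphorylated by recombinant human ALK. IC50 values came from a four-parameter logistic fit.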

TYK2 = TYK2 (Homo sapiens, UniProt P29597); test: TYK2 kinase inhibition (Table A1)
Chain of TYK2 (P29597 whole entry): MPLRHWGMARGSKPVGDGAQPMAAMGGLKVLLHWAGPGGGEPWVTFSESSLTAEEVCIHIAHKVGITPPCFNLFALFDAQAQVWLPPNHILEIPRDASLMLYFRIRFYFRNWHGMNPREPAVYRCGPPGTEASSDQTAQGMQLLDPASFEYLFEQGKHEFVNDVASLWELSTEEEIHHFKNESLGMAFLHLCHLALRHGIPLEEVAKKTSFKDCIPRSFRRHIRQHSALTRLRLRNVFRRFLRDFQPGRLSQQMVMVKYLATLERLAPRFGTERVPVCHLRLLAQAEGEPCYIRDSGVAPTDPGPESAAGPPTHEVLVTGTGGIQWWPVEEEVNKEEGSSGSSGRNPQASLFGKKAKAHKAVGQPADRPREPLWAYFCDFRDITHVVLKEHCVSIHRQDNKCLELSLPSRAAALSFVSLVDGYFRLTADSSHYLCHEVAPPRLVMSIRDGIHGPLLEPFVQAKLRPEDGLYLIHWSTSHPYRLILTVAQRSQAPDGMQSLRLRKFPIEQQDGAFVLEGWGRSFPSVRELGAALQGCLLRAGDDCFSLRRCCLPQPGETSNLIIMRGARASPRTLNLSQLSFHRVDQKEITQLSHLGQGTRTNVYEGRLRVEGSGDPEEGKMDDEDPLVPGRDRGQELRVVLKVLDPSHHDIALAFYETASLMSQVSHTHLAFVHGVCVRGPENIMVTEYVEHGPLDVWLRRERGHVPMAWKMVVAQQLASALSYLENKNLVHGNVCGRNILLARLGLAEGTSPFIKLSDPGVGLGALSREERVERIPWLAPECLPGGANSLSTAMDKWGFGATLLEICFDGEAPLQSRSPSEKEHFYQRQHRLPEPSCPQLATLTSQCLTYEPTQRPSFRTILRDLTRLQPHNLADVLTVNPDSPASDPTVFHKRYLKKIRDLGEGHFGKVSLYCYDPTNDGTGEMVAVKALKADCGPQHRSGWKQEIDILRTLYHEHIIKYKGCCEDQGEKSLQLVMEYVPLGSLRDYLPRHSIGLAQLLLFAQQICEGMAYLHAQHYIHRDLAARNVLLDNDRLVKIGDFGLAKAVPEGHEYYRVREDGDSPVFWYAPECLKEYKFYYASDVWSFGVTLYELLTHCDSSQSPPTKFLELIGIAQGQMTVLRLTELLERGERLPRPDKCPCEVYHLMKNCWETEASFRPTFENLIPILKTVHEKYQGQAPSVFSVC

[3] = target: T3, human JAK1 (a.a. 837-1142) (Homo sapiens, UniProt P23458); test: In vitro JAK kinase assay (HTRF, phosphorylation of a biotinylated peptide), JAK1; details: read-out: JAK1 IC50
T3 construct: human JAK1 (a.a. 837-1142); His tag (N); made in house; host or cells: insect cells (baculovirus)
T3 sequence (P23458 849-1154): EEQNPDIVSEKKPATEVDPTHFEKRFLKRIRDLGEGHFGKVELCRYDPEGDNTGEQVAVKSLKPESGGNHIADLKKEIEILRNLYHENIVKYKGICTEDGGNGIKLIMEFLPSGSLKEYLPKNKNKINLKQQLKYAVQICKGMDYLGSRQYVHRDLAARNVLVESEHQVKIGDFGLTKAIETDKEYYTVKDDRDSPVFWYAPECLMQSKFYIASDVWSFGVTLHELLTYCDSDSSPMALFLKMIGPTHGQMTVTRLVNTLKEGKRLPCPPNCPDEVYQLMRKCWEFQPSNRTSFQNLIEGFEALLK
How it was run: as §1

[4] = target: T4, human JAK2 (a.a. 828-1132) (Homo sapiens, UniProt O60674); test: In vitro JAK kinase assay (HTRF, phosphorylation of a biotinylated peptide), JAK2
T4 construct: JAK2 (a.a. 828-1132); His tag (N); made in house; host or cells: insect cells (baculovirus)
T4 sequence (O60674 828-1132): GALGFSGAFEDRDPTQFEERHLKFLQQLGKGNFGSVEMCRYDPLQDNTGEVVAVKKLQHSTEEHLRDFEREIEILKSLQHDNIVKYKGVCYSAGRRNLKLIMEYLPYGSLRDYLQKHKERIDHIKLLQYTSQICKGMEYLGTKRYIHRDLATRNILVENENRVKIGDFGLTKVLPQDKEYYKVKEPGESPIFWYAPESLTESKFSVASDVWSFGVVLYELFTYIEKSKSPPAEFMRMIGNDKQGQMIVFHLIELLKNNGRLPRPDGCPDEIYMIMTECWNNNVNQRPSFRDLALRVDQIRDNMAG
How it was run: as §1

[5] = method AA1 (3 μM ATP) or AA2 (1000 μM ATP), not stated per value
[6] = compound at 500 nM or 1 mM, 90 μM ATP
[7] = method AA1 (90 μM ATP) or AA2 (1000 μM ATP), not stated per value
[8] = method AA1 (30 μM ATP) or AA2 (1000 μM ATP), not stated per value
[9] = Table B1, cells without percent sign
[10] = compound at a concentration of 500 nM or 1 mM (not specified), cells shown as percentage

T1 sequence (P52333 781-1124): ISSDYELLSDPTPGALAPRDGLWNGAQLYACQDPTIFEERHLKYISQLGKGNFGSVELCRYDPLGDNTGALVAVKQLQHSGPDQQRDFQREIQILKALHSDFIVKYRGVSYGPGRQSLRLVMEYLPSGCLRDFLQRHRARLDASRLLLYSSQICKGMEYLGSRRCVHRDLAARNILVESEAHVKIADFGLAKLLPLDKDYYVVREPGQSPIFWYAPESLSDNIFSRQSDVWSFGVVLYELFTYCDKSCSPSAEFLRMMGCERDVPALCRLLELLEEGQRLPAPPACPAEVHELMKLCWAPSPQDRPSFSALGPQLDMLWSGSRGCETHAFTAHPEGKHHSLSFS

Compound	IC50 [1, 5] [nM]	ALK % of inhibition at a concentration of 500 nM or 1 mM [2, 6] [%]	IC50 (TYK2) [nM]	IC50 [3, 7] [nM]	IC50 [4, 8] [nM]	IC50 ([1]; Table B1) [nM]	IC50 [2, 9] [nM]	IC50 (TYK2; Table B1) [nM]	IC50 ([3]; Table B1) [nM]	IC50 ([4]; Table B1) [nM]	also measured
COc1cccc(S(=O)(=O)N2CCC(CC(=O)Nc3ccc4cc3CCc3cncc(c3)Nc3ncc(Cl)c(n3)N4)CC2)c1 [Example A196, N-[6-Chloro-2,4,8,18,22-pentaazatetracyclo[14.3.1.1(3,7).1(9,13)]docosa-1(20),3(22),4,6,9(21),10,12,16,18-nonaen-12-yl]-2-{1-[(3-methoxyphenyl)sulfonyl]piperidin-4-yl}acetamide bis(trifluoroacetate)]	> 200	34	> 200	15	100						
CS(=O)(=O)N1CCN(c2cc(-c3cc4cc(c3)Nc3ncc(Cl)c(n3)Nc3cccc(c3)OCC4)ccn2)CC1 [Example D36, 6-Chloro-19-{2-[4-(methylsulfonyl)piperazin-1-yl]pyridin-4-yl}-14-oxa-2,4,8,23-tetraazatetracyclo[15.3.1.1(3,7).1(9,13)]tricosa-1(21),3(23),4,6,9(22),10,12,17,19-nonaene bis(trifluoroacetate)]											IC50 ([1]; Table D1): 4.9 nM; IC50 ([2]; Table D1, 90 μM ATP): 225 nM; IC50 (TYK2; Table D1): 4.9 nM; IC50 ([3]; Table D1): 1.3 nM; IC50 ([4]; Table D1): 0.4 nM
O=C(COc1cc2cc(c1)Nc1nc(ncc1Cl)Nc1cccc(c1)CC2)Nc1ccccc1 [Example A24, 2-{[6-Chloro-2,4,8,22-tetraazatetracyclo[14.3.1.1(3,7).1(9,13)]docosa-1(20),3(22),4,6,9(21),10,12,16,18-nonaen-11-yl]oxy}-N-phenylacetamide trifluoroacetate]	58	11	139	47	4.3						
Clc1cnc2nc1Nc1cccc(c1)OCCc1cc(cc(-c3cnc(N4CCNCC4)nc3)c1)N2 [Example D31, 6-Chloro-19-(2-piperazin-1-ylpyrimidin-5-yl)-14-oxa-2,4,8,23-tetraazatetracyclo[15.3.1.1(3,7).1(9,13)]tricosa-1(21),3(23),4,6,9(22),10,12,17,19-nonaene tris(trifluoroacetate)]											IC50 ([1]; Table D1): 6.7 nM; IC50 ([2]; Table D1, 90 μM ATP): 104 nM; IC50 (TYK2; Table D1): 2 nM; IC50 ([3]; Table D1): 0.9 nM; IC50 ([4]; Table D1): 0.2 nM
Cc1ccccc1NC(=O)N1CCC(CC(=O)Nc2ccc3cc2CCc2cncc(c2)Nc2ncc(Cl)c(n2)N3)CC1 [Example A149, 4-(2-{[6-Chloro-2,4,8,18,22-pentaazatetracyclo[14.3.1.1(3,7).1(9,13)]docosa-1(20),3(22),4,6,9(21),10,12,16,18-nonaen-12-yl]amino}-2-oxoethyl)-N-(2-methylphenyl)piperidine-1-carboxamide bis(trifluoroacetate)]	> 100	35	6.9	0.5	3.1						
O=C(CC1CCN(S(=O)(=O)c2ccco2)CC1)Nc1ccc2cc1CCc1cncc(c1)Nc1ncc(Cl)c(n1)N2 [Example A201, N-[6-Chloro-2,4,8,18,22-pentaazatetracyclo[14.3.1.1(3,7).1(9,13)]docosa-1(20),3(22),4,6,9(21),10,12,16,18-nonaen-12-yl]-2-[1-(2-furylsulfonyl)piperidin-4-yl]acetamide bis(trifluoroacetate)]	> 200	31	150	9.3	100						
N#Cc1c(N2CCC(CC(=O)Nc3ccc4cc3CCc3cncc(c3)Nc3ncc(Cl)c(n3)N4)CC2)cccc1C(F)(F)F [Example A235, N-[6-Chloro-2,4,8,18,22-pentaazatetracyclo[14.3.1.1(3,7).1(9,13)]docosa-1(20),3(22),4,6,9(21),10,12,16,18-nonaen-12-yl]-2-{1-[2-cyano-3-(trifluoromethyl)phenyl]piperidin-4-yl}acetamide tris(trifluoroacetate)]	> 400	4.6	> 400	12	326						

Second part, led by results:

IC50 [1, 5] [nM]	ALK % of inhibition at a concentration of 500 nM or 1 mM [2, 6] [%]	IC50 (TYK2) [nM]	IC50 [3, 7] [nM]	IC50 [4, 8] [nM]	IC50 ([1]; Table B1) [nM]	IC50 [2, 9] [nM]	IC50 (TYK2; Table B1) [nM]	IC50 ([3]; Table B1) [nM]	IC50 ([4]; Table B1) [nM]	Compound	also measured
					64	> 1000	154	4.9	2.7	Clc1ccc(CN2CCN(Cc3cc4cc(c3)Nc3nc(ncc3Cl)Nc3cccc(c3)CC4)CC2)cc1 [Example B199, 6-Chloro-11-{[4-(4-chlorobenzyl)piperazin-1-yl]methyl}-2,4,8,22-tetraazatetracyclo[14.3.1.1(3,7).1(9,13)]docosa-1(20),3(22),4,6,9(21),10,12,16,18-nonaene tris(trifluoroacetate)]	
					0.3		0.62	0.51	0.15	COc1cccc(S(=O)(=O)Nc2ccc3cc2CCc2cccc(c2)Nc2ncc(Cl)c(n2)N3)c1 [Example B157, N-[6-Chloro-2,4,8,22-tetraazatetracyclo[14.3.1.1(3,7).1(9,13)]docosa-1(20), 3(22),4,6,9(21),10,12,16,18-nonaen-12-yl]-3-methoxybenzenesulfonamide trifluoroacetate]	ALK % of inhibition at a concentration of 500 nM or 1 mM [2, 10]: 87%
					21		3.4	12	25	O=C(NCc1ccncc1)Nc1ccc2cc1CCc1cccc(c1)Nc1ncc(Cl)c(n1)N2 [Example B246, N-[6-Chloro-2,4,8,22-tetraazatetracyclo[14.3.1.1(3,7).1(9,13)]docosa-1(20),3(22),4,6,9(21),10,12,16,18-nonaen-12-yl]-N′-(pyridin-4-ylmethyl)ureabis(trifluoroacetate)]	ALK % of inhibition at a concentration of 500 nM or 1 mM [2, 10]: 23%
					35		24	6.4	8.9	CN(C)C(=O)Nc1ccc2cc1CCc1cccc(c1)Nc1ncc(Cl)c(n1)N2 [Example B239, N′-[6-Chloro-2,4,8,22-tetraazatetracyclo[14.3.1.1(3,7).1(9,13)]docosa-1(20),3(22),4,6,9(21),10,12,16,18-nonaen-12-yl]-N,N-dimethylurea trifluoroacetate]	ALK % of inhibition at a concentration of 500 nM or 1 mM [2, 10]: 21%
					2.7	86	0.66	0.2	0.12	O=C(Nc1ccc2cc1CCc1cccc(c1)Nc1ncc(Cl)c(n1)N2)c1ccncc1 [Example B39, N-[6-Chloro-2,4,8,22-tetraazatetracyclo[14.3.1.1(3,7).1(9,13)]docosa-1(20), 3(22),4,6,9(21),10,12,16,18-nonaen-12-yl]isonicotinamide bis(trifluoroacetate)]	
					102		24	7	11	O=C(Nc1ccc2cc1CCc1cccc(c1)Nc1ncc(Cl)c(n1)N2)N[C@H]1CCN(C(=O)c2ccccn2)C1 [Example B233, N-[6-Chloro-2,4,8,22-tetraazatetracyclo[14.3.1.1(3,7).1(9,13)]docosa-1(20),3(22),4,6,9(21),10,12,16,18-nonaen-12-yl]-N′-[(3S)-1-(pyridin-2-ylcarbonyl)pyrrolidin-3-yl]urea bis(trifluoroacetate)]	ALK % of inhibition at a concentration of 500 nM or 1 mM [2, 10]: 5.8%
					84	> 1000	150	209	57	Cn1cncc1C(=O)Nc1cc2cc(c1)Nc1nc(ncc1Cl)Nc1cccc(c1)CC2 [Example B208, N-[6-Chloro-2,4,8,22-tetraazatetracyclo[14.3.1.1(3,7).1(9,13)]docosa-1(20),3(22),4,6,9(21),10,12,16,18-nonaen-11-yl]-1-methyl-1H-imidazole-5-carboxamide trifluoroacetate]	
					42	> 1000	21	13	7.7	COc1ccccc1C(=O)Nc1ccc2cc1CCc1cccc(c1)Nc1ncc(Cl)c(n1)N2 [Example B36, N-[6-Chloro-2,4,8,22-tetraazatetracyclo[14.3.1.1(3,7).1(9,13)]docosa-1(20), 3(22),4,6,9(21),10,12,16,18-nonaen-12-yl]-2-methoxybenzamide trifluoroacetate]	
					2.6	130	0.61	0.5	0.11	O=S(=O)(Nc1ccc2cc1CCc1cccc(c1)Nc1ncc(Cl)c(n1)N2)c1cccs1 [Example B146, N-[6-Chloro-2,4,8,22-tetraazatetracyclo[14.3.1.1(3,7).1(9,13)]docosa-1(20), 3(22),4,6,9(21),10,12,16,18-nonaen-12-yl]thiophene-2-sulfonamide trifluoroacetate]	

Source: patent publication US8871753B2, “Macrocyclic compounds and their use as kinase inhibitors” (Incyte Corporation, priority 2008, dated 2014)
